Measurements: patent US6355799B1, “Substituted benzene compounds, process for their preparation, and herbicidal and defoliant compositions containing them” (ISK Americas Incorporated, priority 1997, dated 2002)

What was measured:
Assay type in all cases: in vivo
[1] = tested on: large crabgrass (Digitaria sanguinalis, DIGSA); assay: Pre-emerge test, greenhouse herbicide activity screening; conditions: rated 14 days after application, 0 = no damage, 100 = complete death
Summary of the method: (§1)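 Fourteen days after spraying, crop and weed injury was graded visually from 0, no effect, to 100, every plant dead. Test substances were dissolved in acetone and applied at 15–1000 g ai/ha with a flat-fan nozzle. Application was either pre-emergence, one day after sowing, or post-emergence at the 2–3 leaf stage.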

[2] = tested on: sicklepod (Cassia obtusifolia, CASOB); assay: as above; conditions: rated 14 days after application, 0 = no damage, 100 = complete death
Summary of the method: as §1

[3] = tested on: velvetleaf (Abutilon theophrasti, ABUTH); assay: as above; conditions: rated 14 days after application, 0 = no damage, 100 = complete death
Summary of the method: as §1

[4] = tested on: green foxtail (Setaria viridis, SETVI); assay: as above; conditions: rated 14 days after application, 0 = no damage, 100 = complete death
Summary of the method: as §1

[5] = tested on: lambsquarters (Chenopodium album, CHEAL); assay: as above; conditions: rated 14 days after application, 0 = no damage, 100 = complete death
Summary of the method: as §1

[6] = tested on: johnsongrass (Sorghum halepense, SORHA); assay: as above; conditions: rated 14 days after application, 0 = no damage, 100 = complete death
Summary of the method: as §1

[7] = tested on: ivyleaf morningglory (Ipomoea hederacea, IPOHE); assay: as above; conditions: rated 14 days after application, 0 = no damage, 100 = complete death
Summary of the method: as §1

[8] = tested on: barnyardgrass (Echinochloa crus-galli, ECHCG); assay: as above; conditions: rated 14 days after application, 0 = no damage, 100 = complete death
Summary of the method: as §1

[9] = tested on: redroot pigweed (Amaranthus retroflexus, AMARE); assay: Post-emerge test, greenhouse herbicide activity screening; conditions: post-emerge, 14 days after application, rating scale 0-100
Summary of the method: (§2)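 Each test used a mechanized track sprayer delivering 187 l/ha of acetone solution at 15–1000 g ai/ha. Post-emerge foliage at 2–3 leaves was treated with added 0.25% v/v non-ionic surfactant and bottom-watered only. Injury was assessed on day 14, where 100 means total kill.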

[10] = tested on: large crabgrass (Digitaria sanguinalis, DIGSA); assay: as above; conditions: post-emerge, 14 days after application, rating scale 0-100
Summary of the method: as §2

[11] = tested on: sicklepod (Cassia obtusifolia, CASOB); assay: as above; conditions: post-emerge, 14 days after application, rating scale 0-100
Summary of the method: as §2

[12] = tested on: velvetleaf (Abutilon theophrasti, ABUTH); assay: as above; conditions: post-emerge, 14 days after application, rating scale 0-100
Summary of the method: as §2

[13] = tested on: green foxtail (Setaria viridis, SETVI); assay: as above; conditions: post-emerge, 14 days after application, rating scale 0-100
Summary of the method: as §2

[14] = tested on: lambsquarters (Chenopodium album, CHEAL); assay: as above; conditions: post-emerge, 14 days after application, rating scale 0-100
Summary of the method: as §2

[15] = tested on: johnsongrass (Sorghum halepense, SORHA); assay: as above; conditions: post-emerge, 14 days after application, rating scale 0-100
Summary of the method: as §2

[16] = tested on: ivyleaf morningglory (Ipomoea hederacea, IPOHE); assay: as above; conditions: post-emerge, 14 days after application, rating scale 0-100
Summary of the method: as §2

[17] = tested on: barnyardgrass (Echinochloa crus-galli, ECHCG); assay: as above; conditions: post-emerge, 14 days after application, rating scale 0-100
Summary of the method: as §2

[18] = tested on: redroot pigweed (Amaranthus retroflexus, AMARE); assay: Pre-emerge test, greenhouse herbicide activity screening; conditions: rated 14 days after application, 0 = no damage, 100 = complete death
Summary of the method: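 Sandy loam pots; pre-emerge: sown 1 d pre-spray, surface-watered after, then bottom-watered. Post-emerge: sown 8–21 d before, 2–3 leaf stage, + 0.25% v/v NIS, bottom-watered. Acetone, 187 l/ha track spray, 15–1000 g ai/ha. 0–100 injury score, day 14.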

[19] = tested on: upland rice (Oryza sp., var. Tebonnet, RICE); assay: Post-emerge test, crop safety; conditions: post-emerge, 14 days after application, rating scale 0-100
Summary of the method: as §1

[20] = tested on: field corn (Zea mays L., var. Dekalb 535, CORN); assay: Post-emerge test, crop safety; conditions: post-emerge, 14 days after application, rating scale 0-100
Summary of the method: as §1

[21] = tested on: upland rice (Oryza sp., var. Tebonnet, RICE); assay: Pre-emerge test, crop safety; conditions: rated 14 days after application, 0 = no damage, 100 = complete death
Summary of the method: (§3)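 Visual ratings on a 0-100 scale (0 no damage, 100 all plants dead) were taken at 14 days after treatment. Rates of 15-1000 g ai/ha in acetone, 187 l/ha, were sprayed onto soil one day after planting (pre-emerge) or onto 2-3 leaf plants with 0.25% v/v surfactant (post-emerge).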

[22] = tested on: field corn (Zea mays L., var. Dekalb 535, CORN); assay: Pre-emerge test, crop safety; conditions: rated 14 days after application, 0 = no damage, 100 = complete death
Summary of the method: as §3

**Q.** Which “Pre-emerge Herbicidal Activity, phytotoxicity rating (0-100), DIGSA” value ([1]; 63 g ai/ha) does the source give for `COc1c(Cl)cc(F)c(-n2c(=O)cc(C(F)(F)F)n(C)c2=O)c1NC(=O)COCc1ccccc1` [2-89] here?
**A.** 99

**Q.** And the “Pre-emerge Herbicidal Activity, phytotoxicity rating (0-100), DIGSA” value ([1]; 250 g ai/ha)?
**A.** 100

**Q.** And the “Pre-emerge Herbicidal Activity, phytotoxicity rating (0-100), CASOB” value ([2]; 63 g ai/ha)?
**A.** 95

**Q.** What about the “Pre-emerge Herbicidal Activity, phytotoxicity rating (0-100), CASOB” value ([2]; 250 g ai/ha) of the same compound?
**A.** 100

**Q.** And the “Pre-emerge Herbicidal Activity, phytotoxicity rating (0-100), ABUTH” value ([3]; 63 g ai/ha)?
**A.** 100

**Q.** And the “Pre-emerge Herbicidal Activity, phytotoxicity rating (0-100), ABUTH” value ([3]; 250 g ai/ha)?
**A.** 100

**Q.** What about the “Pre-emerge Herbicidal Activity, phytotoxicity rating (0-100), SETVI” value ([4]; 63 g ai/ha) of the same compound?
**A.** 100

**Q.** And the “Pre-emerge Herbicidal Activity, phytotoxicity rating (0-100), SETVI” value ([4]; 250 g ai/ha)?
**A.** 100

**Q.** And the “Pre-emerge Herbicidal Activity, phytotoxicity rating (0-100), CHEAL” value ([5]; 63 g ai/ha)?
**A.** 100

**Q.** And the “Pre-emerge Herbicidal Activity, phytotoxicity rating (0-100), CHEAL” value ([5]; 250 g ai/ha)?
**A.** 100

**Q.** What about the “Pre-emerge Herbicidal Activity, phytotoxicity rating (0-100), SORHA” value ([6]; 63 g ai/ha) of the same compound?
**A.** 60

**Q.** And the “Pre-emerge Herbicidal Activity, phytotoxicity rating (0-100), SORHA” value ([6]; 250 g ai/ha)?
**A.** 90

**Q.** And the “Pre-emerge Herbicidal Activity, phytotoxicity rating (0-100), IPOHE” value ([7]; 63 g ai/ha)?
**A.** 95

**Q.** And the “Pre-emerge Herbicidal Activity, phytotoxicity rating (0-100), IPOHE” value ([7]; 250 g ai/ha)?
**A.** 100

**Q.** What about the “Pre-emerge Herbicidal Activity, phytotoxicity rating (0-100), ECHCG” value ([8]; 63 g ai/ha) of the same compound?
**A.** 50

**Q.** What about the “Pre-emerge Herbicidal Activity, phytotoxicity rating (0-100), ECHCG” value ([8]; 250 g ai/ha) of the same compound?
**A.** 90

**Q.** And the “phytotoxicity rating AMARE” value ([9]; 63 g ai/ha)?
**A.** 70

**Q.** What about the “phytotoxicity rating AMARE” value ([9]; 250 g ai/ha) of the same compound?
**A.** 100

**Q.** What about the “phytotoxicity rating DIGSA” value ([10]; 63 g ai/ha) of the same compound?
**A.** 0

**Q.** What about the “phytotoxicity rating DIGSA” value ([10]; 250 g ai/ha) of the same compound?
**A.** 0

**Q.** And the “phytotoxicity rating CASOB” value ([11]; 63 g ai/ha)?
**A.** 50

**Q.** What about the “phytotoxicity rating CASOB” value ([11]; 250 g ai/ha) of the same compound?
**A.** 60

**Q.** And the “phytotoxicity rating ABUTH” value ([12]; 63 g ai/ha)?
**A.** 100

**Q.** What about the “phytotoxicity rating ABUTH” value ([12]; 250 g ai/ha) of the same compound?
**A.** 100

**Q.** What about the “phytotoxicity rating SETVI” value ([13]; 63 g ai/ha) of the same compound?
**A.** 20

**Q.** And the “phytotoxicity rating SETVI” value ([13]; 250 g ai/ha)?
**A.** 20

**Q.** What about the “phytotoxicity rating CHEAL” value ([14]; 63 g ai/ha) of the same compound?
**A.** 60

**Q.** And the “phytotoxicity rating CHEAL” value ([14]; 250 g ai/ha)?
**A.** 90

**Q.** And the “phytotoxicity rating SORHA” value ([15]; 63 g ai/ha)?
**A.** 0

**Q.** What about the “phytotoxicity rating SORHA” value ([15]; 250 g ai/ha) of the same compound?
**A.** 10

**Q.** What about the “phytotoxicity rating IPOHE” value ([16]; 63 g ai/ha) of the same compound?
**A.** 90

**Q.** What about the “phytotoxicity rating IPOHE” value ([16]; 250 g ai/ha) of the same compound?
**A.** 100

**Q.** And the “phytotoxicity rating ECHCG” value ([17]; 63 g ai/ha)?
**A.** 0

**Q.** And the “phytotoxicity rating ECHCG” value ([17]; 250 g ai/ha)?
**A.** 10

**Q.** And the “Pre-emerge Herbicidal Activity, phytotoxicity rating (0-100), AMARE” value ([18]; 63 g ai/ha)?
**A.** 100

**Q.** What about the “Pre-emerge Herbicidal Activity, phytotoxicity rating (0-100), AMARE” value ([18]; 250 g ai/ha) of the same compound?
**A.** 100

**Q.** What about the “phytotoxicity rating RICE” value ([19]; 63 g ai/ha) of the same compound?
**A.** 60

**Q.** What about the “phytotoxicity rating RICE” value ([19]; 250 g ai/ha) of the same compound?
**A.** 70

**Q.** What about the “phytotoxicity rating CORN” value ([20]; 63 g ai/ha) of the same compound?
**A.** 0

**Q.** What about the “phytotoxicity rating CORN” value ([20]; 250 g ai/ha) of the same compound?
**A.** 0

**Q.** What about the “Pre-emerge phytotoxicity rating (0-100), crop damage, RICE” value ([21]; 63 g ai/ha) of the same compound?
**A.** 40

**Q.** And the “Pre-emerge phytotoxicity rating (0-100), crop damage, RICE” value ([21]; 250 g ai/ha)?
**A.** 90

**Q.** And the “Pre-emerge phytotoxicity rating (0-100), crop damage, CORN” value ([22]; 63 g ai/ha)?
**A.** 10

**Q.** And the “Pre-emerge phytotoxicity rating (0-100), crop damage, CORN” value ([22]; 250 g ai/ha)?
**A.** 30
